Experimental data reported in US9668481B2, “Triazole derivatives” (priority 2013, dated 2017).
Like-named read-outs stand apart in the source and are kept apart here. Marks after values point to notes of the source that are not given here.

Experiments:
Uromyces appendiculatus = test: In vivo preventive test on Uromyces appendiculatus (bean rust); details: bean plants, preventive spray, evaluated 11 days after inoculation
Procedure: (§1) The young plants of bean are treated by spraying the active ingredient prepared as described above. Control plants are treated only with an aqueous solution of acetone/Dimethyl sulfoxide/Tween®. After 24 hours, the plants are contaminated by spraying the leaves with an aqueous suspension of Uromyces appendiculatus spores.

Sphaerotheca fuliginea = test: In vivo preventive test on Sphaerotheca fuliginea (powdery mildew on cucurbits); details: gherkin plants, preventive spray, evaluated 15 days after inoculation
Procedure: as §1, with “gherkin” for “bean”, “Sphaerotheca fuliginea” for “Uromyces appendiculatus”

Botrytis cinerea = test: In vivo preventive test on Botrytis cinerea (grey mould); details: 100 ppm of active ingredient; gherkin plants, preventive spray; evaluated 4 to 5 days after inoculation
Procedure: as §1, with “gherkin” for “bean”, “Botrytis cinerea” for “Uromyces appendiculatus”, “spores. The contaminated gherkin plants are incubated for 4 to 5 days at 17° C. and at 90% relative humidity.” for “spores.”

Puccinia recondita = test: In vivo preventive test on Puccinia recondita (brown rust on wheat); details: 500 ppm of active ingredient; wheat plants, preventive spray; evaluated 11 days after inoculation
Procedure: as §1, with “wheat” for “bean”, “Puccinia recondita” for “Uromyces appendiculatus”

Septoria tritici = test: In vivo preventive test on Septoria tritici (leaf spot on wheat); details: 500 ppm of active ingredient; wheat plants, preventive spray; evaluated 24 days after inoculation
Procedure: as §1, with “wheat” for “bean”, “Septoria tritici” for “Uromyces appendiculatus”

Pyrenophora teres = test: In vivo preventive test on Pyrenophora teres (net blotch on barley); details: 500 ppm of active ingredient; barley plants, preventive spray; evaluated 14 days after inoculation
Procedure: as §1, with “barley” for “bean”, “Pyrenophora teres” for “Uromyces appendiculatus”

[1] = method [a]: LC-MS at pH 2.7, 0.1% formic acid in water / acetonitrile gradient
[2] = method [b]: LC-MS at pH 7.8, 0.001 molar ammonium hydrogen carbonate in water / acetonitrile gradient

| Structure (SMILES) | LogP (pH 2.7) | LogP [1] | other results |
| --- | --- | --- | --- |
| CC(C)(C)C(O)(Cc1nccnc1Cl)Cn1cncn1 (centres unmarked) [Example I-18] | 2.01^[a] | – | – |
| CC(C)(C)C1(Cc2cc(Cl)ncc2F)CO1 (centres unmarked) [XII-15] | – | 3.42^[a] | – |
| CC(C)(C)C(O)(Cc1ccnc(Cl)c1)Cn1cncn1 (centres unmarked) [Example I-15] | 1.93^[a] | – | Eff. % (Uromyces appendiculatus; 100 ppm of active ingredient): 91%; Eff. % (Sphaerotheca fuliginea; 100 ppm of active ingredient): 100% |
| CCC(C)(C)C1(Cc2ccncc2F)CO1 (centres unmarked) [XII-8] | – | 2.76^[a] | – |
| Cc1cnc(CC(O)(Cn2cncn2)C(C)(C)C)c(Cl)n1 (centres unmarked) [Example I-20] | 2.21^[a] | – | – |
| CCC(C)(C)C(O)(Cc1ccnc(Cl)c1)Cn1cncn1 (centres unmarked) [Example I-14] | 2.27^[a] | – | Eff. % (Botrytis cinerea): 87%; Eff. % (Sphaerotheca fuliginea; 100 ppm of active ingredient): 100% |
| COC(C)(C)C(O)(Cc1ccncc1Cl)Cn1cncn1 (centres unmarked) [Example I-26] | 1.48^[a] | – | Eff. % (Puccinia recondita): 89%; Eff. % (Septoria tritici): 97%; Eff. % (Uromyces appendiculatus; 500 ppm of active ingredient): 100%; Eff. % (Pyrenophora teres): 71%; Eff. % (Sphaerotheca fuliginea; 500 ppm of active ingredient): 100% |
| CC(C)(C)C1(Cc2c(Cl)cncc2Cl)CO1 (centres unmarked) [XII-21] | – | 3.89^[a] | – |
| Cc1ncc(CC(O)(Cn2cncn2)C(C)(C)C)nc1Cl (centres unmarked) [Example I-19] | 2.10^[a] | – | – |
| CC(C)(C)C(O)(Cc1cncc(Cl)n1)Cn1cncn1 (centres unmarked) [Example I-17] | 1.89^[a] | – | – |
| CC(C)(C)C(=O)Cc1ccc(Cl)nc1 [Example V-3] | – | 2.47^[a] | – |
| CC(C)(C)C1(Cc2cnc3ccccc3c2)CO1 (centres unmarked) [XII-2] | – | 1.86^[a] | – |
| CC(C)(C)C1(Cc2ccncc2F)CO1 (centres unmarked) [XII-7] | – | 2.31^[a] | – |
| CC(C)(C)C1(Cc2ccnc(Cl)c2)CO1 (centres unmarked) [XII-12] | – | 3.06^[a] | – |
| CCC(C)(C)C1(Cc2cc(F)ncc2Cl)CO1 (centres unmarked) [XII-19] | – | 4.17^[a] | – |
| CC(C)(C)C(O)(Cc1cc(Cl)nc(Cl)c1)Cn1cncn1 (centres unmarked) [Example I-9] | 2.64^[a] | – | Eff. % (Sphaerotheca fuliginea; 100 ppm of active ingredient): 97% |
| CCCC(C)(C)C1(Cc2ccncc2Cl)CO1 (centres unmarked) [XII-23] | – | 2.03^[a] | – |
| CC(C)(C)C(O)(Cc1ccc(Cl)c(Cl)n1)Cn1cncn1 (centres unmarked) [Example I-12] | 2.78^[a] | – | – |
| CC(C)(C)C(O)(Cc1cnccn1)Cn1cncn1 (centres unmarked) [Example I-21] | 1.39^[a] | – | – |
| CC(C)(C)C(O)(Cc1ccnc2ccccc12)Cn1cncn1 (centres unmarked) [Example I-10] | 1.17^[a] | – | Eff. % (Uromyces appendiculatus; 100 ppm of active ingredient): 85%; Eff. % (Sphaerotheca fuliginea; 100 ppm of active ingredient): 97% |
| CC(C)(C)C(=O)Cc1cccnc1 [Example V-7] | – | 0.41 | LogP [2]: 1.71 |
| CCC(C)(C)C1(Cc2ccnc(Cl)c2)CO1 (centres unmarked) [XII-10] | – | 3.51^[a] | – |
| CC(C)(C)C(O)(Cc1ccc(Cl)nc1)Cn1cncn1 (centres unmarked) [Example I-2] | 1.98^[b]; 1.98^[a] | – | LogP (pH 7.8): 1.98^[b]; 1.98^[a]; Eff. % (Uromyces appendiculatus; 500 ppm of active ingredient): 77%; Eff. % (Sphaerotheca fuliginea; 500 ppm of active ingredient): 98% |
| CC(C)(C)C(O)(Cc1cc(Cl)cc(Cl)n1)Cn1cncn1 (centres unmarked) [Example I-11] | 2.86^[a] | – | – |
| CC(C)(C)C(O)(Cc1nc(Cl)ccc1Cl)Cn1cncn1 (centres unmarked) [Example I-33] | 2.82^[a] | – | – |
| CC(C)(C)C(O)(Cc1cccc(Cl)n1)Cn1cncn1 (centres unmarked) [Example I-13] | 2.30^[a] | – | – |

| Structure (SMILES) | LogP (pH 2.7) | LogP [1] | other results |
| --- | --- | --- | --- |
| CC(C)(C)C(=O)Cc1ncc(Cl)cc1Cl [Example V-1] | – | 3.33^[a] | – |
| CC(C)(C)C(O)(Cc1cnc2ccccc2c1)Cn1cncn1 (centres unmarked) [Example I-1] | 1.18^[a] | – | – |
| CC(C)(C)C(O)(Cc1ccc2ccccc2n1)Cn1cncn1 (centres unmarked) [Example I-8] | – | 1.51^[a] | Eff. % (Sphaerotheca fuliginea; 100 ppm of active ingredient): 79% |
| CCC(C)(C)C1(Cc2c(Cl)cncc2Cl)CO1 (centres unmarked) [XII-22] | – | 4.41^[a] | – |
| CC(C)CCC(O)(Cc1ccncc1Cl)Cn1cncn1 (centres unmarked) [Example I-31] | 2.00^[a] | – | Eff. % (Puccinia recondita): 89%; Eff. % (Septoria tritici): 100%; Eff. % (Uromyces appendiculatus; 500 ppm of active ingredient): 96%; Eff. % (Sphaerotheca fuliginea; 500 ppm of active ingredient): 100% |
| CC(C)(C)C1(Cc2ncc(Cl)cc2Cl)CO1 (centres unmarked) [XII-1] | – | 4.06^[a] | – |
| CC(C)(C)C1(Cc2cc(F)ncc2Cl)CO1 (centres unmarked) [XII-18] | – | 3.65^[a] | – |
| CC(C)C(C)(C)C(=O)Cc1ccncc1Cl [Example V-6] | – | 3.00^[a] | – |
| CCC(C)(C)C1(Cc2cc(Cl)ncc2F)CO1 (centres unmarked) [XII-14] | – | 3.89^[a] | – |
| CC(C)(C)C(=O)Cc1cnc2ccccc2c1 [Example V-2] | – | 1.60^[a] | – |
| CC(C)(C)C1(Cc2ccnc(Cl)c2F)CO1 (centres unmarked) [XII-20] | – | 3.37^[a] | – |
| CCC(C)(CC)C(=O)Cc1ccncc1Cl [Example V-5] | – | 3.04^[a] | – |
| CCOC(C)(C)C(O)(Cc1ccncc1Cl)Cn1cncn1 (centres unmarked) [Example I-32] | 1.90 | – | LogP (pH 7.8): 2.04; Eff. % (Puccinia recondita): 83%; Eff. % (Uromyces appendiculatus; 500 ppm of active ingredient): 99%; Eff. % (Sphaerotheca fuliginea; 500 ppm of active ingredient): 98% |
| CC(C)(C)C(O)(Cc1cc(Cl)ccn1)Cn1cncn1 (centres unmarked) [Example I-22] | 1.87^[a] | – | – |
| CC(C)(C)C(O)(Cc1c(Cl)cncc1Cl)Cn1cncn1 (centres unmarked) [Example I-28] | 2.34^[a] | – | – |
| CC(C)C(C)(C)C1(Cc2ccnc(Cl)c2)CO1 (centres unmarked) [XII-11] | – | 3.94^[a] | – |
| CC(C)(C)C(O)(Cc1cncc(Oc2ccc(Cl)cc2)n1)Cn1cncn1 (centres unmarked) [Example I-25] | 2.98^[a] | – | Eff. % (Puccinia recondita): 71% |
| CCC(C)(C)C1(Cc2ccncc2Cl)CO1 (centres unmarked) [XII-17] | – | 3.33^[a] | – |
| CC(C)C(C)(C)C1(Cc2ccncc2F)CO1 (centres unmarked) [XII-9] | – | 3.19^[a] | – |
| CC(C)C(C)(C)C1(Cc2cc(Cl)ncc2F)CO1 (centres unmarked) [XII-13] | – | 4.34^[a] | – |
| Cc1cccc(CC(O)(Cn2cncn2)C(C)(C)C)n1 (centres unmarked) [Example I-23] | 0.63^[a] | – | – |
| CC(C)(C)C(=O)Cc1ccncc1 [Example V-8] | – | 0.35 | LogP [2]: 1.75 |
| CCOC(=O)OC(Cc1cccnc1Cl)(Cn1cncn1)C(C)(C)C (centres unmarked) [Example I-24] | 2.67 | – | LogP (pH 7.8): 2.56; Eff. % (Puccinia recondita): 86%; Eff. % (Septoria tritici): 100%; Eff. % (Uromyces appendiculatus; 500 ppm of active ingredient): 97%; Eff. % (Pyrenophora teres): 75%; Eff. % (Sphaerotheca fuliginea; 500 ppm of active ingredient): 100% |
| CC(C)(C)C(O)(Cc1cc(Cl)ncc1F)Cn1cncn1 (centres unmarked) [Example I-16] | 2.16^[a] | – | Eff. % (Uromyces appendiculatus; 100 ppm of active ingredient): 84%; Eff. % (Sphaerotheca fuliginea; 100 ppm of active ingredient): 100% |
| CC(C)C(C)(C)C1(Cc2ccncc2Cl)CO1 (centres unmarked) [XII-16] | – | 3.75^[a] | – |
